Test results taken from patent US20220339143A1, “TAK-925 FOR USE IN TREATING NARCOLEPSY” (Takeda Pharmaceutical Company Limited, priority 2019, published 2022).
Read-outs that look alike come from different tables or passages of the source.

Test: Single dose PK in healthy subjects (Cohorts 1, 2, S1 and S2), plasma
Format: in vivo, human
Conditions: human, plasma
Procedure: This study investigates (i) the safety and tolerability of Compound A (methyl (2R,3S)-3-((methylsulfonyl)amino)-2-(((cis-4-phenylcyclohexyl)oxy)methyl)piperidine-1-carboxylate) when a single dose given as a 9 hour continuous IV infusion is administered to healthy adults, healthy elderly subjects and patients with narcolepsy type 1 (NT1); (ii) the pharmacokinetics of Compound A when a single dose given as a 9 hour continuous IV infusion is administered to healthy adults, healthy elderly subjects and patients with narcolepsy type 1; and (iii) the pharmacodynamics (PD) effects of Compound A, primarily by evaluation of the sleep latency on MWT when a single dose given as a 9 hour continuous IV infusion is administered to patients with narcolepsy type 1.
Pharmacokinetics: Concentrations of Compound A in plasma, and CSF, and pharmacokinetics parameters.
On average, the time to reach the plateau appeared to be approximately 3 to 4 hours after the start of infusion. […] After switching off the IV infusion, Compound A plasma concentrations declined rapidly and in a biphasic manner with a mean terminal disposition phase t1/2z ranging approximately from 3.4 to 5.1 hours across all doses. […] Table 5 provides a summary of plasma concentrations of Compound A after a single IV infusion in healthy subjects. Table 6 provides a summary of pharmacokinetic parameters of Compound A after a single IV infusion in healthy subjects.

[1] = intravenous, 180 mg, read-out: Plasma concentration, Maximum
[2] = intravenous, 180 mg, read-out: Plasma concentration, Mean
[3] = intravenous, 180 mg, read-out: Plasma concentration, Median
[4] = intravenous, 180 mg, read-out: Plasma concentration, Minimum
[5] = intravenous, 180 mg, read-out: Plasma concentration, Q1
[6] = intravenous, 180 mg, read-out: Plasma concentration, Q3
[7] = intravenous, 240 mg, read-out: Plasma concentration, Mean
[8] = intravenous, 240 mg, read-out: Plasma concentration, Minimum
[9] = intravenous, 240 mg, read-out: Plasma concentration, Q1

COC(=O)N1CCC[C@H](NS(C)(=O)=O)[C@@H]1CO[C@H]1CC[C@@H](c2ccccc2)CC1 [Compound A, methyl (2R,3S)-3-((methylsulfonyl)amino)-2-(((cis-4-phenylcyclohexyl)oxy)methyl)piperidine-1-carboxylate]
concentration at 1 h [1]: 265 ng/mL
concentration at 1 h [2]: 216 ng/mL
concentration at 1 hr [3]: 215 ng/mL
concentration at 1 hr [4]: 173 ng/mL
concentration at 1 hr [5]: 201 ng/mL
concentration at 1 h [6]: 229 ng/mL
concentration at 1.5 h [1]: 304 ng/mL
concentration at 1.5 h [2]: 255 ng/mL
concentration at 1.5 hr [3]: 242 ng/mL
concentration at 1.5 hr [4]: 224 ng/mL
concentration at 1.5 hr [5]: 228 ng/mL
concentration at 1.5 h [6]: 290 ng/mL
concentration at 2 h [1]: 341 ng/mL
concentration at 2 h [2]: 294 ng/mL
concentration at 2 hr [3]: 292 ng/mL
concentration at 2 hr [4]: 251 ng/mL
concentration at 2 hr [5]: 271 ng/mL
concentration at 2 h [6]: 320 ng/mL
concentration at 3 h [1]: 355 ng/mL
concentration at 3 h [2]: 315 ng/mL
concentration at 3 hr [3]: 314 ng/mL
concentration at 3 hr [4]: 276 ng/mL
concentration at 3 hr [5]: 307 ng/mL
concentration at 3 h [6]: 324 ng/mL
concentration at 4 h [1]: 361 ng/mL
concentration at 4 hr [2]: 328 ng/mL
concentration at 4 hr [3]: 325 ng/mL
concentration at 4 hr [4]: 293 ng/mL
concentration at 4 hr [5]: 304 ng/mL
concentration at 4 h [6]: 358 ng/mL
concentration at 6 h [1]: 322 ng/mL
concentration at 6 hr [2]: 292 ng/mL
concentration at 6 hr [3]: 292 ng/mL
concentration at 6 hr [4]: 252 ng/mL
concentration at 6 hr [5]: 285 ng/mL
concentration at 6 h [6]: 311 ng/mL
concentration at 8 h [1]: 337 ng/mL
concentration at 8 h [2]: 300 ng/mL
concentration at 8 hr [3]: 292 ng/mL
concentration at 8 hr [4]: 275 ng/mL
concentration at 8 hr [5]: 277 ng/mL
concentration at 8 hr [6]: 330 ng/mL
concentration at 9 h (intravenous, 180 mg, 9 hr, read-out: Plasma concentration, Maximum): 364 ng/mL
concentration at 9 h (intravenous, 180 mg, 9 hr, read-out: Plasma concentration, Mean): 325 ng/mL
concentration at 9 hr (intravenous, 180 mg, 9 hr, read-out: Plasma concentration, Median): 316 ng/mL
concentration at 9 hr (intravenous, 180 mg, 9 hr, read-out: Plasma concentration, Minimum): 285 ng/mL
concentration at 9 hr (intravenous, 180 mg, 9 hr, read-out: Plasma concentration, Q1): 311 ng/mL
concentration at 9 hr (intravenous, 180 mg, 9 hr, read-out: Plasma concentration, Q3): 358 ng/mL
concentration at 0.5 h (intravenous, 240 mg, 0.5 hr, read-out: Plasma concentration, Mean): 292 ng/mL
concentration at 0.5 hr (intravenous, 240 mg, 0.5 hr, read-out: Plasma concentration, Minimum): 228 ng/mL
concentration at 0.5 hr (intravenous, 240 mg, 0.5 hr, read-out: Plasma concentration, Q1): 230 ng/mL
concentration at 1 h [7]: 345 ng/mL
concentration at 1 hr [8]: 265 ng/mL
concentration at 1 hr [9]: 286 ng/mL
concentration at 1.5 h [7]: 388 ng/mL
concentration at 1.5 hr [8]: 315 ng/mL
concentration at 1.5 hr [9]: 333 ng/mL
concentration at 2 h [7]: 403 ng/mL
concentration at 2 hr [8]: 337 ng/mL
concentration at 2 hr [9]: 349 ng/mL
concentration at 3 h [7]: 456 ng/mL
concentration at 3 hr [8]: 393 ng/mL
concentration at 3 hr [9]: 400 ng/mL
concentration at 4 h [7]: 493 ng/mL
concentration at 4 hr [8]: 388 ng/mL
concentration at 4 hr [9]: 423 ng/mL
concentration at 6 h [7]: 428 ng/mL
concentration at 6 hr [8]: 335 ng/mL
concentration at 6 hr [9]: 366 ng/mL
concentration at 8 h [7]: 474 ng/mL
concentration at 8 h [8]: 393 ng/mL
concentration at 8 hr [9]: 409 ng/mL
concentration at 9 h (intravenous, 240 mg, 9 hr, read-out: Plasma concentration, Mean): 497 ng/mL
concentration at 9 hr (intravenous, 240 mg, 9 hr, read-out: Plasma concentration, Minimum): 417 ng/mL
concentration at 9 hr (intravenous, 240 mg, 9 hr, read-out: Plasma concentration, Q1): 452 ng/mL
AUC (iv, 7 mg, 7 mg single IV infusion, healthy subjects, read-out: AUC24 Geo Mean): 140 ng·h/mL
AUC (iv, 7 mg, 7 mg single IV infusion, healthy subjects, read-out: AUC24 Mean): 142 ng·h/mL
AUC (iv, 7 mg, 7 mg single IV infusion, healthy subjects, read-out: AUC24 Median): 142 ng·h/mL
AUC(0-inf) (iv, 7 mg, 7 mg single IV infusion, healthy subjects, read-out: AUCinf Geo Mean): 142 ng·h/mL
AUC(0-inf) (iv, 7 mg, 7 mg single IV infusion, healthy subjects, read-out: AUCinf Mean): 143 ng·h/mL
AUC(0-inf) (iv, 7 mg, 7 mg single IV infusion, healthy subjects, read-out: AUCinf Median): 146 ng·h/mL
AUC(0-t) (iv, 7 mg, 7 mg single IV infusion, healthy subjects, read-out: AUClast Geo Mean): 138 ng·h/mL
AUC(0-t) (iv, 7 mg, 7 mg single IV infusion, healthy subjects, read-out: AUClast Mean): 140 ng·h/mL
AUC(0-t) (iv, 7 mg, 7 mg single IV infusion, healthy subjects, read-out: AUClast Median): 142 ng·h/mL
clearance (iv, 7 mg, 7 mg single IV infusion, healthy subjects, read-out: CL Mean (converted)): 833 mL/min
concentration at 9 h (iv, 7 mg, 7 mg single IV infusion, healthy subjects, read-out: Ceoi Geo Mean): 13.4 ng/mL
concentration at 9 h (iv, 7 mg, 7 mg single IV infusion, healthy subjects, read-out: Ceoi Mean): 13.5 ng/mL
concentration at 9 h (iv, 7 mg, 7 mg single IV infusion, healthy subjects, read-out: Ceoi Median): 13.9 ng/mL
Cmax (iv, 7 mg, 7 mg single IV infusion, healthy subjects, read-out: Cmax Geo Mean): 16.7 ng/mL
Cmax (iv, 7 mg, 7 mg single IV infusion, healthy subjects, read-out: Cmax Mean): 16.9 ng/mL
Cmax (iv, 7 mg, 7 mg single IV infusion, healthy subjects, read-out: Cmax Median): 16.5 ng/mL
Vd (iv, 7 mg, 7 mg single IV infusion, healthy subjects, read-out: Vss Mean): 82.9 L
Vd (iv, 7 mg, 7 mg single IV infusion, healthy subjects, read-out: Vz Mean): 292 L
Vd (iv, 7 mg, 7 mg single IV infusion, healthy subjects, read-out: Vz Median): 303 L
Tmax (iv, 7 mg, 7 mg single IV infusion, healthy subjects, read-out: tmax Mean): 3 h
Tmax (iv, 7 mg, 7 mg single IV infusion, healthy subjects, read-out: tmax Median): 3 h
AUC (iv, 14 mg, 14 mg single IV infusion, healthy subjects, read-out: AUC24 Geo Mean): 323 ng·h/mL
AUC (iv, 14 mg, 14 mg single IV infusion, healthy subjects, read-out: AUC24 Mean): 326 ng·h/mL
AUC (iv, 14 mg, 14 mg single IV infusion, healthy subjects, read-out: AUC24 Median): 322 ng·h/mL
AUC(0-inf) (iv, 14 mg, 14 mg single IV infusion, healthy subjects, read-out: AUCinf Geo Mean): 328 ng·h/mL
AUC(0-inf) (iv, 14 mg, 14 mg single IV infusion, healthy subjects, read-out: AUCinf Mean): 331 ng·h/mL
